According to ChEMBL document CHEMBL3885861, “Open TG-GATES”:

Species on record: Rattus norvegicus
Assay: Open TG-GATES - Regimen: Single
Assay type: toxicity, organism-based, Sprague-Dawley
Parameters: regimen Single, gender Male, age 6 weeks
Conditions: in vivo, po, 24 h, route gavage; for Bas / Eos / Hb / Ht / Lym / MCH / MCHC / MCV / Mono / Neu / Plat / RBC / Ret / WBC: tissue Blood; for KIDNEY_L / KIDNEY_R / KIDNEY_TOTAL: tissue Kidney; for LIVER: tissue Liver; for A/G / ALP / ALT / AST / BUN / CRE / Ca / Cl / DBIL / GLC / IP / K / LDH / Na / PL / RALB / TBIL / TC / TG / TP / gamma-GTP: tissue Plasma

Compound: O=NN1CCOCC1 [N-NITROSOMORPHOLINE]
- TERMINAL_BW (0 mg/kg, dose level Control): 228.1 g
- Bas (0 mg/kg, dose level Control): 0%
- Eos (0 mg/kg, dose level Control): 0.6%
- Hb (0 mg/kg, dose level Control): 12.5 g/dL
- Ht (0 mg/kg, dose level Control): 38.4%
- Lym (0 mg/kg, dose level Control): 80%
- MCH (0 mg/kg, dose level Control): 20.2 pg
- MCHC (0 mg/kg, dose level Control): 32.5%
- MCV (0 mg/kg, dose level Control): 62.2 fL
- Mono (0 mg/kg, dose level Control): 2.2%
- Neu (0 mg/kg, dose level Control): 16.4%
- Plat (0 mg/kg, dose level Control): 122.3 x10_4/uL
- RBC (0 mg/kg, dose level Control): 619.4 x10_4/ul
- Ret (0 mg/kg, dose level Control): 8%
- WBC (0 mg/kg, dose level Control): 73.5 x10_2/uL
- KIDNEY_L (0 mg/kg, dose level Control): 1 g
- KIDNEY_R (0 mg/kg, dose level Control): 1 g
- KIDNEY_TOTAL (0 mg/kg, dose level Control): 2.1 g
- LIVER (0 mg/kg, dose level Control): 10.8 g
- A/G (0 mg/kg, dose level Control): 1
- ALP (0 mg/kg, dose level Control): 1437.2 IU/L
- ALT (0 mg/kg, dose level Control): 38.6 IU/L
- AST (0 mg/kg, dose level Control): 65.2 IU/L
- BUN (0 mg/kg, dose level Control): 15.9 mg/dL
- CRE (0 mg/kg, dose level Control): 0.2 mg/dL
- Ca (0 mg/kg, dose level Control): 10.8 mg/dL
- Cl (0 mg/kg, dose level Control): 103.3 meq/L
- DBIL (0 mg/kg, dose level Control): 0 mg/dL
- GLC (0 mg/kg, dose level Control): 188 mg/dL
- IP (0 mg/kg, dose level Control): 6.6 mg/dL
- K (0 mg/kg, dose level Control): 4.4 meq/L
- LDH (0 mg/kg, dose level Control): 152.8 IU/L
- Na (0 mg/kg, dose level Control): 141.3 meq/L
- PL (0 mg/kg, dose level Control): 162.4 mg/dL
- RALB (0 mg/kg, dose level Control): 2.9 g/dL
- TBIL (0 mg/kg, dose level Control): 0.006 mg/dL
- TC (0 mg/kg, dose level Control): 81.8 mg/dL
- TG (0 mg/kg, dose level Control): 144.6 mg/dL
- TP (0 mg/kg, dose level Control): 5.7 g/dL
- gamma-GTP (0 mg/kg, dose level Control): 1 IU/L
- TERMINAL_BW (100 mg/kg, dose level Low): 215.1 g
- Bas (100 mg/kg, dose level Low): 0%
- Eos (100 mg/kg, dose level Low): 0.4%
- Hb (100 mg/kg, dose level Low): 13.6 g/dL
- Ht (100 mg/kg, dose level Low): 41.7%
- Lym (100 mg/kg, dose level Low): 66.4%
- MCH (100 mg/kg, dose level Low): 20.4 pg
- MCHC (100 mg/kg, dose level Low): 32.7%
- MCV (100 mg/kg, dose level Low): 62.4 fL
- Mono (100 mg/kg, dose level Low): 3.8%
- Neu (100 mg/kg, dose level Low): 27.8%
- Plat (100 mg/kg, dose level Low): 110.9 x10_4/uL
- RBC (100 mg/kg, dose level Low): 669.4 x10_4/ul
- Ret (100 mg/kg, dose level Low): 7.6%
- WBC (100 mg/kg, dose level Low): 88.5 x10_2/uL
- KIDNEY_L (100 mg/kg, dose level Low): 1 g
- KIDNEY_R (100 mg/kg, dose level Low): 1 g
- KIDNEY_TOTAL (100 mg/kg, dose level Low): 2 g
- LIVER (100 mg/kg, dose level Low): 9.2 g
- A/G (100 mg/kg, dose level Low): 1.1
- ALP (100 mg/kg, dose level Low): 1723.6 IU/L
- ALT (100 mg/kg, dose level Low): 134.6 IU/L
- AST (100 mg/kg, dose level Low): 347.6 IU/L
- BUN (100 mg/kg, dose level Low): 18.8 mg/dL
- CRE (100 mg/kg, dose level Low): 0.2 mg/dL
- Ca (100 mg/kg, dose level Low): 10.8 mg/dL
- Cl (100 mg/kg, dose level Low): 102 meq/L
- DBIL (100 mg/kg, dose level Low): 0.046 mg/dL
- GLC (100 mg/kg, dose level Low): 164.2 mg/dL
- IP (100 mg/kg, dose level Low): 8 mg/dL
- K (100 mg/kg, dose level Low): 4.3 meq/L
- LDH (100 mg/kg, dose level Low): 883.2 IU/L
- Na (100 mg/kg, dose level Low): 140.8 meq/L
- PL (100 mg/kg, dose level Low): 141.4 mg/dL
- RALB (100 mg/kg, dose level Low): 2.8 g/dL
- TBIL (100 mg/kg, dose level Low): 0.084 mg/dL
- TC (100 mg/kg, dose level Low): 73.4 mg/dL
- TG (100 mg/kg, dose level Low): 34.1 mg/dL
- TP (100 mg/kg, dose level Low): 5.4 g/dL
- gamma-GTP (100 mg/kg, dose level Low): 0.9 IU/L
- TERMINAL_BW (300 mg/kg, dose level Middle): 212.5 g
- Bas (300 mg/kg, dose level Middle): 0%
- Eos (300 mg/kg, dose level Middle): 0.6%
- Hb (300 mg/kg, dose level Middle): 14.2 g/dL
- Ht (300 mg/kg, dose level Middle): 43.1%
- Lym (300 mg/kg, dose level Middle): 59.2%
- MCH (300 mg/kg, dose level Middle): 20.9 pg
- MCHC (300 mg/kg, dose level Middle): 32.9%
- MCV (300 mg/kg, dose level Middle): 63.4 fL
- Mono (300 mg/kg, dose level Middle): 3.2%
- Neu (300 mg/kg, dose level Middle): 36.2%
- Plat (300 mg/kg, dose level Middle): 115.8 x10_4/uL
- RBC (300 mg/kg, dose level Middle): 680.2 x10_4/ul
- Ret (300 mg/kg, dose level Middle): 7.6%
- WBC (300 mg/kg, dose level Middle): 67.6 x10_2/uL
- KIDNEY_L (300 mg/kg, dose level Middle): 1 g
- KIDNEY_R (300 mg/kg, dose level Middle): 1 g
- KIDNEY_TOTAL (300 mg/kg, dose level Middle): 1.9 g
- LIVER (300 mg/kg, dose level Middle): 8.7 g
- A/G (300 mg/kg, dose level Middle): 1.2
- ALP (300 mg/kg, dose level Middle): 1483.8 IU/L
- ALT (300 mg/kg, dose level Middle): 94.6 IU/L
- AST (300 mg/kg, dose level Middle): 245.8 IU/L
- BUN (300 mg/kg, dose level Middle): 15 mg/dL
- CRE (300 mg/kg, dose level Middle): 0.2 mg/dL
- Ca (300 mg/kg, dose level Middle): 10.7 mg/dL
- Cl (300 mg/kg, dose level Middle): 101.9 meq/L
- DBIL (300 mg/kg, dose level Middle): 0.038 mg/dL
- GLC (300 mg/kg, dose level Middle): 172.6 mg/dL
- IP (300 mg/kg, dose level Middle): 8.1 mg/dL
- K (300 mg/kg, dose level Middle): 4.1 meq/L
- LDH (300 mg/kg, dose level Middle): 426 IU/L
- Na (300 mg/kg, dose level Middle): 140.4 meq/L
- PL (300 mg/kg, dose level Middle): 115.4 mg/dL
- RALB (300 mg/kg, dose level Middle): 3 g/dL
- TBIL (300 mg/kg, dose level Middle): 0.064 mg/dL
- TC (300 mg/kg, dose level Middle): 60.8 mg/dL
- TG (300 mg/kg, dose level Middle): 31.5 mg/dL
- TP (300 mg/kg, dose level Middle): 5.5 g/dL
- gamma-GTP (300 mg/kg, dose level Middle): 1 IU/L
- TERMINAL_BW (600 mg/kg, dose level High): 197.8 g
- Bas (600 mg/kg, dose level High): 0%
- Eos (600 mg/kg, dose level High): 1%
- Hb (600 mg/kg, dose level High): 14.9 g/dL
- Ht (600 mg/kg, dose level High): 44.9%
- Lym (600 mg/kg, dose level High): 35%
- MCH (600 mg/kg, dose level High): 20.6 pg
- MCHC (600 mg/kg, dose level High): 33.3%
- MCV (600 mg/kg, dose level High): 61.9 fL
- Mono (600 mg/kg, dose level High): 2.4%
- Neu (600 mg/kg, dose level High): 61.8%
- Plat (600 mg/kg, dose level High): 103.6 x10_4/uL
- RBC (600 mg/kg, dose level High): 727.4 x10_4/ul
- Ret (600 mg/kg, dose level High): 7.5%
- WBC (600 mg/kg, dose level High): 51.6 x10_2/uL
- KIDNEY_L (600 mg/kg, dose level High): 0.9 g
- KIDNEY_R (600 mg/kg, dose level High): 0.9 g
- KIDNEY_TOTAL (600 mg/kg, dose level High): 1.8 g
- LIVER (600 mg/kg, dose level High): 7.9 g
- A/G (600 mg/kg, dose level High): 1.1
- ALP (600 mg/kg, dose level High): 1527.2 IU/L
- ALT (600 mg/kg, dose level High): 100.4 IU/L
- AST (600 mg/kg, dose level High): 304 IU/L
- BUN (600 mg/kg, dose level High): 13.9 mg/dL
- CRE (600 mg/kg, dose level High): 0.1 mg/dL
- Ca (600 mg/kg, dose level High): 10.5 mg/dL
- Cl (600 mg/kg, dose level High): 101.5 meq/L
- DBIL (600 mg/kg, dose level High): 0.022 mg/dL
- GLC (600 mg/kg, dose level High): 174.4 mg/dL
- IP (600 mg/kg, dose level High): 8 mg/dL
- K (600 mg/kg, dose level High): 4.2 meq/L
- LDH (600 mg/kg, dose level High): 476.8 IU/L
- Na (600 mg/kg, dose level High): 139.4 meq/L
- PL (600 mg/kg, dose level High): 105 mg/dL
- RALB (600 mg/kg, dose level High): 3.1 g/dL
- TBIL (600 mg/kg, dose level High): 0.044 mg/dL
- TC (600 mg/kg, dose level High): 56.2 mg/dL
- TG (600 mg/kg, dose level High): 25.4 mg/dL
- TP (600 mg/kg, dose level High): 5.7 g/dL
- gamma-GTP (600 mg/kg, dose level High): 1.1 IU/L
